From patent publication US9480729B2, “Enzymes for inhibiting growth of biofilms and degrading same” (C5-6 Technologies, Inc., priority 2012, dated 2016)

Experiments:
[1] = cited from earlier work
[2] = tested on: Pseudomonas aeruginosa biofilm; assay: Sugar release / solubilization of dehydrated P. aeruginosa biofilm by carbohydrate-active enzymes; details: individual enzymes, dehydrated biofilm in PBS, 37° C., 19 hr / overnight

For NC[C@H]1O[C@H](O[C@H]2[C@H](O)[C@@H](O[C@H]3O[C@H](CO)[C@@H](O)[C@H](N)[C@H]3O)[C@H](N)C[C@@H]2N)[C@H](N)C[C@@H]1O [tobramycin], the “maximal attainable concentration in the CF lung” value [1] is listed as roughly 1000 µg/mL.

With “egg yolk lysozyme: egg yolk lysozyme (Sigma L4919)” the “digestion (solubilization, hydrolysis) of the Pseudomonas aeruginosa biofilm, sugar release” value [2] was “None of these three enzymes showed significant hydrolysis”.

B1: P043 CelH: Clostridium thermocellum CelH enzyme (gene Cthe_1472) represented by SEQ ID NO:12 (protein, listed as Clostridium thermocellum)
chain: IKSFQELQGRKLDIVHQFINWSTDFSWVRPYADAVYNNGSILMITWEPWEYNTVDIKNGKADAYITRMAQDMKAYGKEIWLRPLHEANGDWYPWAIGYSSRVNTNETYIAAFRHIVDIFRANGATNVKWVFNVNCDNVGNGTSYLGHYPGDNYVDYTSIDGYNWGTTQSWGSQWQSFDQVFSRAYQALASINKPIIIAEFASAEIGGNKARWITEAYNSIRTSYNKVIAAVWFHENKETDWRINSSPEALAAYREAIGAGSSNPTPTPTWTSTPPSSSPKAVDPFEMVRKMGMGTNLGNTLEAPYEGSWSKSAMEYYFDDFKAAGYKNVRIPVRWDNHTMRTYPYTIDKAFLDRVEQVVDWSLSRGFVTIINSHHDDWIKEDYNGNIERFEKIWEQIAERFKNKSENLLFEIMNEPFGNITDEQIDDMNSRILKIIRKTNPTRIVIIGGGYWNSYNTLVNIKIPDDPYLIGTFHYYDPYEFTHKWRGTWGTQEDMDTVVRVFDFVKSWSDRNNIPVYFGEFAVMAYADRTSRVKWYDFISDAALERGFACSVWDNGVFGSLDNDMAIYNRDTRTFDTEILNALFNPGTYPSYSPKPSPTPRPTKPPVTPAVGEKMLDDFEGVLNWGSYSGEGAKVSTKIVSGKTGNGMEVSYTGTTDGYWGTVYSLPDGDWSKWLKISFDIKSVDGSANEIRFMIAEKSINGVGDGEHWVYSITPDSSWKTIEIPFSSFRRRLDYQPPGQDMSGTLDLDNIDSIHFMYANNKSGKFVVDNIKLIGATSDPTPSIKHGDLNFDNAVNSTDLLMLKRYILKSLELGTSEQEEKFKKAADLNRDNKVDSTDLTILKRYLLKAISEIPI
With B1 the “digestion (solubilization, hydrolysis) of the Pseudomonas aeruginosa biofilm, sugar release” value [2] was “positive results”.
